Earlier results, collected in patent US20260007632A1, “FORMULATIONS OF DOCETAXEL” (Zhuhai Beihai Biotech Co., Ltd., priority 2020, published 2026).

Experiments:
microtubule = conditions: relative to paclitaxel

CC(=O)Oc1ccccc1C(=O)O [aspirin]
volume of ethanol required to dissolve 1 g (at 25° C.): 5 mL
volume of water required to dissolve 1 g (at 25° C.): 300 mL

CC(=O)O[C@@]12CO[C@@H]1C[C@H](O)[C@@]1(C)C(=O)[C@H](O)C3=C(C)[C@@H](OC(=O)[C@H](O)[C@@H](NC(=O)OC(C)(C)C)c4ccccc4)C[C@@](O)([C@@H](OC(=O)c4ccccc4)[C@H]21)C3(C)C [docetaxel]
potency in inhibiting microtubule depolymerization (microtubule): about twice as potent as paclitaxel
solubility in water: very poor water solubility
